Assay results reported in PubChem BioAssay (NCI).
Where “and” joins values, the source holds several entries; their conditions need not be identical. Equal values may be shown once.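 Five concentrations, 48 hours, 96-well plates. Here, GI50 denotes the concentration required for 50% inhibition of growth. At the TGI there is no net growth.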

Columns and labels:
Assay in all cases: NCI-60 cell line screen, 48 h
UACC-62 melanoma = system: UACC-62 melanoma
NCI/ADR-RES ovarian = system: NCI/ADR-RES ovarian
UACC-257 melanoma = system: UACC-257 melanoma
K-562 leukemia = system: K-562 leukemia
SK-OV-3 ovarian = system: SK-OV-3 ovarian
MDA-MB-231 breast = system: MDA-MB-231 breast
NCI-H226 lung = system: NCI-H226 lung
KM12 colon = system: KM12 colon
NCI-H460 lung = system: NCI-H460 lung
OVCAR-4 ovarian = system: OVCAR-4 ovarian
OVCAR-3 ovarian = system: OVCAR-3 ovarian
DU-145 prostate = system: DU-145 prostate
SK-MEL-2 melanoma = system: SK-MEL-2 melanoma
HCT-116 colon = system: HCT-116 colon
MDA-MB-435 = system: MDA-MB-435
COLO 205 colon = system: COLO 205 colon
SF-295 CNS = system: SF-295 CNS
SN12C renal = system: SN12C renal
OVCAR-8 ovarian = system: OVCAR-8 ovarian
U251 CNS = system: U251 CNS
LOX IMVI melanoma = system: LOX IMVI melanoma
SF-539 CNS = system: SF-539 CNS
CCRF-CEM leukemia = system: CCRF-CEM leukemia
RXF 393 renal = system: RXF 393 renal
HOP-62 NSCLC = system: HOP-62 NSCLC
NCI-H522 lung = system: NCI-H522 lung
BT-549 breast = system: BT-549 breast
ACHN renal = system: ACHN renal
HOP-92 NSCLC = system: HOP-92 NSCLC
UO-31 renal = system: UO-31 renal
SK-MEL-28 melanoma = system: SK-MEL-28 melanoma
NCI-H23 lung = system: NCI-H23 lung
EKVX NSCLC = system: EKVX NSCLC
RPMI-8226 leukemia = system: RPMI-8226 leukemia
CAKI-1 renal = system: CAKI-1 renal
TK-10 renal = system: TK-10 renal
SNB-19 CNS = system: SNB-19 CNS
SF-268 CNS = system: SF-268 CNS
HCC-2998 colon = system: HCC-2998 colon
A549 NSCLC = system: A549 NSCLC
HS 578T breast = system: HS 578T breast
SNB-75 CNS = system: SNB-75 CNS
A498 renal = system: A498 renal
SR leukemia = system: SR leukemia
HCT-15 colon = system: HCT-15 colon
HT29 colon = system: HT29 colon
SW-620 colon = system: SW-620 colon
MCF7 breast = system: MCF7 breast
SK-MEL-5 melanoma = system: SK-MEL-5 melanoma
M14 melanoma = system: M14 melanoma
MALME-3M melanoma = system: MALME-3M melanoma
MOLT-4 leukemia = system: MOLT-4 leukemia
PC-3 prostate = system: PC-3 prostate
HL-60(TB) leukemia = system: HL-60(TB) leukemia
IGROV1 ovarian = system: IGROV1 ovarian
T-47D breast = system: T-47D breast
OVCAR-5 ovarian = system: OVCAR-5 ovarian
786-0 renal = system: 786-0 renal

CC(C)C[C@@H](NC(=O)[C@@H](Cc1ccccc1)NC(=O)c1cnccn1)B1Oc2ccc(C[C@H](NC(=O)[C@H](Cc3ccc4c(c3)OB([C@@H](CC(C)C)NC(=O)[C@@H](Cc3ccccc3)NC(=O)c3cnccn3)O4)NC(=O)[C@@H](N)CC3CCC4OB([C@@H](CC(C)C)NC(=O)[C@@H](CC5CCCCC5)NC(=O)C5CNCCN5)OC4C3)C(=O)NCCCC[C@@H]3NC(=O)[C@@H](Cc4ccccc4)NC(=O)[C@H](CC(=O)O)NC(=O)CNC(=O)[C@H](CCCNC(=N)N)NC3=O)cc2O1 (stereo not given in full)
GI50 (UACC-62 melanoma): 4.12 nM and 2.5 nM
GI50 (NCI/ADR-RES ovarian): 54.8 nM and 17.4 nM
TGI (NCI/ADR-RES ovarian): 669 nM and 148 nM
GI50 (UACC-257 melanoma): 4.33 nM and 3.35 nM
TGI (UACC-257 melanoma): 49.6 nM and 15.6 nM
GI50 (K-562 leukemia): 0.713 nM and 2.5 nM
TGI (K-562 leukemia): > 25000 nM
GI50 (SK-OV-3 ovarian): 30.9 nM and 7.54 nM
TGI (SK-OV-3 ovarian): 694 nM
GI50 (MDA-MB-231 breast): 7.73 nM and 2.5 nM
TGI (MDA-MB-231 breast): 56 nM and 20.5 nM
GI50 (NCI-H226 lung): 2.29 nM
TGI (NCI-H226 lung): 4.54 nM
GI50 (KM12 colon): 3.94 nM and 2.95 nM
TGI (KM12 colon): 15.2 nM and 8.16 nM
GI50 (NCI-H460 lung): 25.3 nM and 7.96 nM
TGI (NCI-H460 lung): 115 nM and 32.2 nM
GI50 (OVCAR-4 ovarian): 5.05 nM and 2.5 nM
TGI (OVCAR-4 ovarian): 181 nM and 548 nM
GI50 (OVCAR-3 ovarian): 2.53 nM and 2.5 nM
TGI (OVCAR-3 ovarian): 6.73 nM and 3.27 nM
GI50 (DU-145 prostate): 5.74 nM and 2.5 nM
TGI (DU-145 prostate): 2980 nM
GI50 (SK-MEL-2 melanoma): 5.45 nM and 2.5 nM
TGI (SK-MEL-2 melanoma): 64.9 nM and 9.2 nM
GI50 (HCT-116 colon): 2.73 nM and 2.5 nM
TGI (HCT-116 colon): 16.4 nM and 2.9 nM
GI50 (MDA-MB-435): 2.06 nM and < 2.5 nM
TGI (MDA-MB-435): 4.52 nM and < 2.5 nM
GI50 (COLO 205 colon): 5.51 nM and 5.55 nM
TGI (COLO 205 colon): 293 nM and 86.4 nM
GI50 (SF-295 CNS): 3.65 nM and 2.5 nM
TGI (SF-295 CNS): 17.2 nM and 7.68 nM
GI50 (SN12C renal): 7.93 nM and 4.85 nM
TGI (SN12C renal): 80.4 nM and 31.9 nM
GI50 (OVCAR-8 ovarian): 22 nM and 8.17 nM
GI50 (U251 CNS): 11.7 nM and 4.76 nM
TGI (U251 CNS): 149 nM and 21 nM
GI50 (LOX IMVI melanoma): 2.41 nM and < 2.5 nM
TGI (LOX IMVI melanoma): 6.6 nM and < 2.5 nM
GI50 (SF-539 CNS): 2.51 nM and < 2.5 nM
TGI (SF-539 CNS): 7.22 nM and < 2.5 nM
GI50 (CCRF-CEM leukemia): 3.82 nM and 2.5 nM
TGI (CCRF-CEM leukemia): > 25000 nM
GI50 (RXF 393 renal): 2.44 nM and < 2.5 nM
TGI (RXF 393 renal): 5.8 nM and < 2.5 nM
GI50 (HOP-62 NSCLC): 7.45 nM and 6.55 nM
TGI (HOP-62 NSCLC): 46.3 nM and 17.7 nM
GI50 (NCI-H522 lung): 3.33 nM and 2.5 nM
TGI (NCI-H522 lung): 17.9 nM and 3.85 nM
GI50 (BT-549 breast): 2.58 nM and 2.5 nM
TGI (BT-549 breast): 8.12 nM and 3.01 nM
GI50 (ACHN renal): 3.95 nM and 2.5 nM
TGI (ACHN renal): 257 nM and 283 nM
GI50 (HOP-92 NSCLC): 3.69 nM and 2.5 nM
TGI (HOP-92 NSCLC): 26.7 nM and 9.53 nM
GI50 (UO-31 renal): 4.28 nM and 2.5 nM
TGI (UO-31 renal): 102 nM and 14.8 nM
GI50 (SK-MEL-28 melanoma): 5.63 nM and 2.5 nM
TGI (SK-MEL-28 melanoma): 517 nM and 106 nM
GI50 (NCI-H23 lung): 5.68 nM and 2.5 nM
TGI (NCI-H23 lung): 41.2 nM and 10.8 nM
GI50 (EKVX NSCLC): 10.6 nM and 7.75 nM
TGI (EKVX NSCLC): 527 nM and 304 nM
GI50 (RPMI-8226 leukemia): 4.32 nM and 2.5 nM
TGI (RPMI-8226 leukemia): 243 nM and 109 nM
GI50 (CAKI-1 renal): 3.55 nM and 7.13 nM
TGI (CAKI-1 renal): 22.2 nM and 38.3 nM
GI50 (TK-10 renal): 3.19 nM and 2.5 nM
GI50 (SNB-19 CNS): 13.6 nM and 2.5 nM
TGI (SNB-19 CNS): 4700 nM
GI50 (SF-268 CNS): 4.1 nM and 2.8 nM
TGI (SF-268 CNS): 27.9 nM and 13.6 nM
GI50 (HCC-2998 colon): 6.49 nM and 3.89 nM
TGI (HCC-2998 colon): 19.8 nM and 7.63 nM
GI50 (A549 NSCLC): 7.23 nM and 8.38 nM
TGI (A549 NSCLC): 321 nM
GI50 (HS 578T breast): 4.19 nM and 2.5 nM
TGI (HS 578T breast): > 25000 nM
GI50 (SNB-75 CNS): 3.92 nM
TGI (SNB-75 CNS): 24.8 nM
GI50 (A498 renal): 3.36 nM and 2.5 nM
TGI (A498 renal): 10.7 nM and 5.35 nM
GI50 (SR leukemia): 4.1 nM
TGI (SR leukemia): 244 nM
GI50 (HCT-15 colon): 4.85 nM and 3.49 nM
TGI (HCT-15 colon): 41 nM and 40.9 nM
GI50 (HT29 colon): 3.73 nM and 2.5 nM
GI50 (SW-620 colon): 4.26 nM and 2.5 nM
TGI (SW-620 colon): 115 nM and 261 nM
GI50 (MCF7 breast): 3.78 nM and 2.5 nM
TGI (MCF7 breast): 439 nM
GI50 (SK-MEL-5 melanoma): 3.01 nM and 2.5 nM
TGI (SK-MEL-5 melanoma): 8.71 nM and 4.81 nM
GI50 (M14 melanoma): 3.22 nM and 2.5 nM
GI50 (MALME-3M melanoma): 3.23 nM and 2.5 nM
TGI (MALME-3M melanoma): 105 nM and 20.6 nM
GI50 (MOLT-4 leukemia): 3.56 nM and 2.5 nM
TGI (MOLT-4 leukemia): > 25000 nM
GI50 (PC-3 prostate): 13.5 nM and 6.32 nM
TGI (PC-3 prostate): 186 nM and 60.4 nM
GI50 (HL-60(TB) leukemia): 4.42 nM
TGI (HL-60(TB) leukemia): 853 nM
GI50 (IGROV1 ovarian): 21.7 nM and 2.5 nM
TGI (IGROV1 ovarian): 250 nM and 917 nM
GI50 (T-47D breast): 3.88 nM and 2.5 nM
TGI (T-47D breast): 41.1 nM and 11.7 nM
GI50 (OVCAR-5 ovarian): 7.84 nM and 3.82 nM
TGI (OVCAR-5 ovarian): 132 nM and 360 nM
GI50 (786-0 renal): 3.68 nM and 2.5 nM
